For assay [1], the system named is mouse skeletal myotube cell line (C2C12 cells). The assay can be described thus: Measurement of sugar uptake-promoting activity (6-NBDG uptake) using skeletal myotube cells. Format: cell-based. Conditions: for sugar uptake-promoting activity (in words): 0.01 mass %, compared with extract C. The procedure: Mouse skeletal myoblasts (C2C12 cells) were cultured in high-glucose DMEM (5790), and the cells were seeded and cultured in a black microtiter plate (produced by Falcon) at a concentration of 5000 cells/200 μL/well. The cells differentiated into myotubes were used for this experiment. Extract A and extract C obtained in the above Production Example 1 and adjusted to final concentrations of 0.02% and 0.05% were used as samples (Examples 2-1 to 2-4). A medium without any addition (Comparative Example 2-1) was used as a negative control. A medium containing insulin (10 nM) (Comparative Example 2-2) was used as a positive control.
On the day of the experiment, after the media were replaced with low-glucose DMEM (6047), starvation was performed. The media were then replaced with media containing the samples of Examples 2-1 to 2-4 and Comparative Examples 2-1 to 2-2 dissolved therein, and incubation was performed for 60 minutes. After the treatment, the media were removed and replaced with low-glucose DMEM containing 100 μM of a fluorescently labeled nonhydrolyzable sugar analog, 6-(N-(7-nitrobenz-2-oxa-1,3-diazol-4-yl)amino)-6-deoxyglucose (6-NBDG; produced by Invitrogen) dissolved therein. After the reaction was allowed to proceed for 30 minutes, the medium was removed. After washing with PBS, the fluorescence was measured at 444 nm/538 nm emission using a fluorescent plate reader.
The sugar uptake-promoting activity, in skeletal myotube cells, of each of extract C (Example 3-1) obtained in the above Production Example 1, and fractions A to C and insoluble matter (Example 3-5) obtained in the above Production Example 2 (Examples 3-2 to 3-4) was measured in the same manner as in Test Example 1-2. Further, as in Test Example 1-2, a medium with no addition was used as a negative control (Comparative Example 3-1), and a medium containing insulin (10 nM) (Comparative Example 3-2) was used as a positive control. The samples of Examples 3-1 to 3-5 were adjusted to a final concentration of 0.02 mass %.
The sugar uptake-promoting activity, in skeletal myotube cells, of extract C obtained in the above Production Example 1 (Example 4-1) and seven compounds known to be contained in persimmon leaves (Example 4-2 to 4-8), i.e., kaempferol-3-O-glucoside, quercetin-3-O-glucoside, quercetin-3-O-galactoside, (+)-catechin, epigallocatechin gallate, rutin, and gallic acid was measured in the same manner as in Test Example 1-2. Further, as in Test Example 1-2, a medium with no addition was used as a negative control (Comparative Example 4-1), and a medium with insulin (10 nM) was used as a positive control (Comparative Example 4-2). The samples obtained in Example 4-1 to 4-8 were adjusted to a final concentration of 0.01 mass %.
The sugar uptake-promoting effects of extract C obtained in the above Production Example 1 (Example 5-1), fraction B obtained in the above Production Example 2 (Example 5-2), and fractions F to L (Examples 5-3 to 5-9) obtained in the above Production Example 3 on skeletal myotube cells were measured in the same manner as in Test Example 2. A medium with no addition was used as a negative control (Comparative Example 5-1), and media with insulin (10 nM) (Comparative Example 5-2), with insulin (100 nM) (Comparative Example 5-3), and with AICAR (final concentration: 3 mM) (Comparative Example 5-4) were used as positive controls. The samples of Examples 5-1 to 5-9 were adjusted to a final concentration of 0.02 mass %. […]

The next assay relates to AMP kinase. The assay can be described thus: Measurement of AMP kinase phosphorylation activity (Western blot pAMPK/tAMPK) in C2C12 cells. Conditions: Test Example 1-1; positive control, final concentration 2 mM; relative value, negative control = 1. It is filed as cell-based, mouse. The protocol: Persimmon leaf extracts A to E (powders) that had been dissolved in media to a final concentration of 0.02% were used as samples (Examples 1-1 to 1-5). A medium without any addition was used as a negative control (Comparative Example 1-1). A medium containing AICAR (final concentration: 2 mM) was used as a positive control (Comparative Example 1-2). Subsequently, a mouse skeletal myotube cell line (C2C12 cells) was seeded onto a 6-well cell culture plate and cultured in a DMEM medium containing 10% fetal bovine serum and a 1% antibacterial agent at 37° C., 5% carbon dioxide for 3 days.
When the cells became confluent, the medium was replaced with a DMEM medium containing 1% fetal bovine serum, and the cells were further cultured and fully differentiated. After the medium was again replaced with a fresh medium, the samples of Examples 1-1 to 1-5 and Comparative Examples 1-1 to 1-2 were added, and the cells were cultured at 37° C., 5% carbon dioxide. […]
The cell lysate was sonicated and then centrifuged to obtain a supernatant. […] The protein concentration of each supernatant was measured. […]
Western blotting was performed in the following manner. […] Chemiluminescence was detected using a CCD camera imager (produced by GE Healthcare). The degree of the activity was expressed as a relative value with the value of the negative control being defined as 1.
(In general: A western blot detects proteins with antibodies after separation by electrophoresis.)

Setting [2] is: Test Example 3, final concentration 0.01 mass %, control = 1.00.

Turning to `Oc1cc(O)c2c(c1)O[C@H](c1ccc(O)c(O)c1)[C@@H](O)C2` [(+)-catechin], in assay [1] (setting [2]), the Relative fluorescence intensity was 1.09.
Consider `NC(=O)c1ncn([C@@H]2O[C@H](CO)[C@@H](O)[C@H]2O)c1N` [AICAR], for which the pAMPK/tAMPK ratio with AMP kinase is reported as 5.60. The Relative fluorescence intensity in assay [1] (Test Example 4, positive control 3 mM, control = 1.00) stood at 1.96.
Take `O=C(O[C@@H]1Cc2c(O)cc(O)cc2O[C@@H]1c1cc(O)c(O)c(O)c1)c1cc(O)c(O)c(O)c1` [Epigallocatechin gallate, epigallocatechin gallate]: the “sugar uptake-promoting activity (in words)” value in assay [1] (Test Example 3) is “as high as Example 4-1”. This molecule returned a Relative fluorescence intensity in assay [1] (setting [2]) of 1.70.
In the same order, the values of `O=C(O)c1cc(O)c(O)c(O)c1` [Gallic acid, gallic acid] are “as high as Example 4-1” and 1.69.
In assay [1] (setting [2]), `O=c1c(O[C@@H]2O[C@H](CO)[C@@H](O)[C@H](O)[C@H]2O)c(-c2ccc(O)cc2)oc2cc(O)cc(O)c12` [Kaempferol-3-glucoside, kaempferol-3-O-glucoside] yielded a Relative fluorescence intensity of 0.91.
With `O=c1c(O[C@@H]2O[C@H](CO)[C@H](O)[C@H](O)[C@H]2O)c(-c2ccc(O)c(O)c2)oc2cc(O)cc(O)c12` [Quercetin-3-galactoside, quercetin-3-O-galactoside], the Relative fluorescence intensity in assay [1] (setting [2]) was 0.70.
For the molecule `O=c1c(O[C@@H]2O[C@H](CO)[C@@H](O)[C@H](O)[C@H]2O)c(-c2ccc(O)c(O)c2)oc2cc(O)cc(O)c12` [Quercetin-3-glucoside, quercetin-3-O-glucoside], the “sugar uptake-promoting activity (in words)” value in assay [1] (Test Example 3) is on record as “as high as Example 4-1”. The Relative fluorescence intensity in assay [1] (setting [2]) is 2.26.
Turning to `C[C@@H]1O[C@@H](OC[C@H]2O[C@@H](Oc3c(-c4ccc(O)c(O)c4)oc4cc(O)cc(O)c4c3=O)[C@H](O)[C@@H](O)[C@@H]2O)[C@H](O)[C@H](O)[C@H]1O` [Rutin, rutin], the Relative fluorescence intensity in assay [1] (setting [2]) stood at 0.91.
insulin: the Relative fluorescence intensity was 1.32 in assay [1] (Test Example 1-2, positive control 10 nM, no addition = 1.00); 1.25 in assay [1] (Test Example 2, positive control 10 nM, no addition = 1.00); 1.43 in assay [1] (Test Example 3, positive control 10 nM, control = 1.00); 1.62 in assay [1] (Test Example 4, positive control 10 nM, control = 1.00); 1.74 in assay [1] (Test Example 4, positive control 100 nM, control = 1.00).

These data come from US9801917B2, “Composition for improving blood sugar metabolism” (SUNSTAR INC., priority 2013, dated 2017).
